ChEMBL document CHEMBL3864189, “Carboxamide Spleen Tyrosine Kinase (Syk) Inhibitors: Leveraging Ground State Interactions To Accelerate Optimization” (ACS Med Chem Lett, 2016)
Calls of active or inactive are those of the source. The rule behind the calls is not given here.

Experiments:
[1] = test system: Salmonella typhimurium; experiment: Genotoxicity in Salmonella typhimurium TA97a in presence of rat s9 fraction by Ames test; format: toxicity, organism-based; conditions: salmonella enterica subsp. enterica serovar typhimurium
[2] = Unbound plasma clearance in po dosed rat; format: ADME, organism-based; conditions: in vivo
[3] = test system: Salmonella typhimurium; experiment: Genotoxicity in Salmonella typhimurium TA97a by Ames test; format: toxicity, organism-based; conditions: salmonella enterica subsp. enterica serovar typhimurium
[4] = test system: Rattus norvegicus; experiment: Antiarthritic activity in collagen-induced arthritis rat model at 3 mg/kg, po administered qd; format: functional, organism-based
[5] = biological target: T1, Tyrosine-protein kinase SYK (Homo sapiens, UniProt P43405); experiment: Inhibition of GST-tagged full length human SYK (1 to 635 end residues) expressed in baculovirus expression system at 10 uM preincubated for 10 mins followed by Blk/Lyntide substrate and ATP addition measured after 45 mins TR-FRET assay relative to control
[6] = biological target: T1, Tyrosine-protein kinase SYK; experiment: Inhibition of GST-tagged full length human SYK (1 to 635 end residues) expressed in baculovirus expression system preincubated for 10 mins followed by Blk/Lyntide substrate and ATP addition measured after 45 mins TR-FRET assay
[7] = Oral bioavailability in rat; format: ADME, organism-based; conditions: in vivo

Row | Compound | Activity [1] | CL free [2] [mL/min/kg] | also measured
1 | C[C@H](N)CNc1cnc(C(N)=O)c(-c2cnn(C)c2)n1 | Non-Toxic | – | –
2 | NC(=O)c1ncc(N[C@@H]2CCCC[C@@H]2N)cc1COc1ccccc1 | Non-Toxic | – | –
3 | Cc1cc(C)nc(Nc2cc(N[C@@H]3CCCC[C@@H]3N)cnc2C(N)=O)c1 | – | 710 | Activity [3]: Toxic; Activity [4]: Active
4 | C[C@H](N)CNc1cnc(C(N)=O)c(-c2cc3ccccc3o2)n1 | Non-Toxic | – | –
5 | C[C@H](N)CNc1cnc(C(N)=O)c(-c2cc3ccccc3[nH]2)n1 | Non-Toxic | – | –
6 | NC(=O)c1ncc(N[C@@H]2CCCC[C@@H]2N)cc1C#Cc1ccccc1 | Non-Toxic | – | –
7 | COc1cccc2[nH]c(-c3nc(N[C@@H]4CCOC[C@@H]4N)cnc3C(N)=O)cc12 | Non-Toxic | 100 | –
8 | Cn1cc(-c2cc(N[C@@H]3CCCC[C@@H]3N)cnc2C(N)=O)cn1 | Non-Toxic | – | inhibition [5]: 9%; IC50 [6]: > 10 µM
9 | NC(=O)c1ncc(N[C@@H]2CCCC[C@@H]2N)nc1-c1cc2ccccc2[nH]1 | Non-Toxic | 255 | bioavailability [7]: 19%
10 | NC(=O)c1ncc(N[C@@H]2CCCC[C@@H]2N)cc1/C=C/c1ccccc1 | Non-Toxic | – | –
